{"source": "patent US20170182104A1", "about": "“COMPOSITION CONTAINING MASTERWORT EXTRACT” (AMOREPACIFIC CORPORATION, priority 2014, published 2017)", "format_in_all_cases": "cell-based, human", "key": {"endothelin 1 (EDN1)": {"test_system": "endothelin 1 (EDN1)", "assay": "Endothelin 1 ELISA assay of culture medium of melanocytes", "details": "melanocytes (KaMC) medium, 2 nM substance P; absorbance/total protein, control group = 100%", "experimental": "When the density of the melanocytes on the 6-well plate reached about 80% (˜80% confluence), they were incubated for a total of 5 days with 2 nM of stress-inducing substance P (Bachem Fechemikalien, Bubendorf, Switzerland) or the masterwort (Peucedanum ostruthium) extract of Example 1 of different concentrations (0, 0.1, 1, 2 and 5 ppm). The cells not treated with substance P or the masterwort (Peucedanum ostruthium) extract of Example 1 were used as a control group.\nThe culture medium of the cells treated with the extract in (2) of Test Example 1 were recovered and the amount of endothelin 1 (EDN1) comprised in the medium was measured at 450 nm using the human total endothelin ELISA kit (MyBioSource, USA).\nEndothelin content (%)=(Absorbance/Total protein)×100 Equation 1"}, "[1]": {"test_system": "NK1R (neurokinin 1 receptor) gene", "assay": "Gene expression assay by real-time PCR: NK1R gene in melanocytes", "details": "melanocytes (KaMC), 2 nM substance P, 5 days; relative to GAPDH, control group = 1", "experimental": "(§1) Melanocytes (KaMC; KCTC 12015BP) deposited in the Korean Collection for Type Culture (KCTC) were cultured in M-254 medium (Gibco BRL, N.Y., USA) supplemented with Human Melanocyte Growth Supplement (HMGS; Gibco BRL, N.Y., USA) on a 6-well plate, while changing the medium every other day, in a 5% CO2 incubator at 37° C. until the cells occupied 95% of the plate area (95% confluence). […] The cells not treated with substance P or the masterwort (Peucedanum ostruthium) extract of Example 1 were used as a control group. After removing the medium form the melanocytes cultured on the 6-well plate, the cells were washed 2 times with cold phosphate-buffered saline (PBS) and the remaining water was completely removed. […] 1 μL of the RNA was quantified using Synergy II (Biotek, USA). […] After adding 10 μL of Taqman Gene Expression Master Mix (Life Technologies, USA) and 1 μL of Assays-on-DemandTM (Life Technologies, USA) of NK1 R (ACCESSION: NM_001058) and EDN1 (ACCESSION: NM_001168319) genes to 9 μL of the diluted cDNA, the expression of the genes was analyzed by relative quantification using 7500 Fast Real-Time PCR (Life Technologies, USA) with glyceraldehyde 3-phosphate dehydrogenase (GAPDH, ACCESSION: NM001256799) as a control gene. […]"}, "EDN1 (endothelin 1) gene": {"test_system": "EDN1 (endothelin 1) gene", "assay": "Gene expression assay by real-time PCR: EDN1 gene in melanocytes", "details": "melanocytes (KaMC), 2 nM substance P, 5 days; relative to GAPDH, control group = 1", "experimental": "as §1"}}}
{"smiles": "CSCC[C@H](NC(=O)[C@H](CC(C)C)NC(=O)CNC(=O)[C@H](Cc1ccccc1)NC(=O)[C@H](Cc1ccccc1)NC(=O)[C@H](CCC(N)=O)NC(=O)[C@H](CCC(N)=O)NC(=O)[C@@H]1CCCN1C(=O)[C@H](CCCCN)NC(=O)[C@@H]1CCCN1C(=O)[C@@H](N)CCCN=C(N)N)C(N)=O", "note": "[substance P]", "values": [{"measurement": "content of endothelin 1", "setting": "endothelin 1 (EDN1)", "value": 124, "unit": "%"}, {"measurement": "expression of the NK1R gene", "setting": "[1]", "value": 4.2}, {"measurement": "expression of the EDN1 gene", "setting": "EDN1 (endothelin 1) gene", "value": 3.6}]}
